Results as given in a melting point compilation (Tetko et al.; mined from patent text by program, amines drawn as free bases though some values may be those of a salt).

SMILES	melting point [°C]
CS(=O)(=O)Nc1ccc(NCC2CCNCC2)c(C(=O)Nc2ccc(Cl)cn2)c1	223 to 226
COc1cc(COc2nn(-c3ccccc3)cc2Cn2cncn2)ccc1OCc1nc(-c2ccco2)oc1C	149 to 150
COC(=O)c1sccc1S(=O)(=O)NC(=O)Nc1nc(C)nc(C)n1	158 to 178
COc1cc(S(C)=O)c(C)cc1OCC(=O)NCC(O)COc1ccccc1C (stereo unspecified)	106 to 108
CN1C(=O)C(C)(C)c2ccc(C(=O)O)cc21	253 to 255
Cc1ccc(-c2ccc(C(=O)Nc3ccc4nc(CN(C(C)C)C(C)C)ccc4c3)cn2)cc1	211 to 213
CN1CCN(c2ccc3nc(-c4ccc(F)cc4)c(I)n3n2)CC1	180
CC(NC(=C(C#N)S(=O)(=O)c1ccc(Cl)cc1)N(C)c1cc(C(F)(F)F)cc(C(F)(F)F)c1)C(C)(C)C (stereo unspecified)	152 to 154
CCc1cc(C=C[N+](=O)[O-])c(OC)nc1C	105 to 107
O=C(O)CO[C@@H]1CCCC[C@H]1NC(=O)Nc1ccccc1 (relative stereo)	166 to 168
CCOC(=O)CSc1ccc(-c2nc3cnccc3[nH]2)cc1	230
Cc1cc(=O)c(C(=O)OC2CCCCC2)nn1-c1ccc(Cl)cc1	160 to 162
CC(=O)N(NC(N)=S)c1ccc([N+](=O)[O-])cc1	242
COc1cc(Oc2ccc(S(C)(=O)=O)nc2)cc2cc(C3=NCC(CC(=O)N(C)C)S3)[nH]c12 (stereo unspecified)	206 to 207
COC(=O)CCCC(=O)NS(=O)(=O)c1ccc(N)cc1	> 260
Nc1nc(O)c2cc(CCc3ccc(C(=O)O)cc3)cnc2n1	> 300
CC(=O)C1CCC2C3CCC4CC(O)CCC4(C)C3C(O)CC12C (stereo unspecified)	152 to 154
CC1=NN(C)c2nc(C)c(CCCl)c(=O)n2C1	180
O=C(CC1CCC(CC(=O)Oc2cc(O)cc(O)c2)CC1)Oc1cc(O)cc(O)c1 (stereo unspecified)	215 to 220
COc1ccc(CCNC(=S)Cc2nnnn2C)cc1OC	90 to 92
CCCCCc1c(/C=C/C(=O)Oc2ccc([N+](=O)[O-])cc2)sc2cc(OC)ccc12	111 to 113
CN1CCN(NC(=O)c2cc([N+](=O)[O-])cc3c2OCCO3)CC1	210
Cc1[nH]c(/C=C2\C(=O)Nc3ccc(F)cc32)c(C)c1C(=O)NCCCCCC(=O)NO	210

SMILES	melting point [°C]
CCCCOC(=O)C=C(C)C=CC=C(C)C=Cc1c(C)c(C)c(OC)c(C)c1C	230 to 233
CCCCCCCCOC(=O)c1cnc(C(=O)O)cn1	142 to 143
CC(=O)OCCC1=CCC2C3CCC4=CCC=CC4(C)C3C(O)CC12C (stereo unspecified)	203 to 205
O=C(C(=O)c1ccn(CC(F)(F)F)c1)c1cccc(Br)c1	105 to 106
O=C(CS(=O)(=O)c1cccs1)C12CC3CC(CC(C3)C1)C2	118 to 119
CC(C)(C)c1ccc(C(=O)Nc2cn3cc(-n4ccnc4)ccc3n2)cn1	242 to 245
C=C1CC2(CC)C(=O)CC(OC(C)=O)C2C2CCC3=CC(=O)CCC3C12 (stereo unspecified)	176
CSC1=CC2=CN(SC)NN2C(SC)=N1	165 to 167
Oc1nc2cc(Cl)c3nc(C(F)(F)F)[nH]c3c2nc1O	> 300
O=C(c1ccn2c1CSC2c1cccnc1)c1c[nH]c2cc(-c3ccc(F)cc3)ccc12 (stereo unspecified)	248 to 252
Cn1nnc2cc(C(=O)NC3CCCn4c3nc(-c3ccncc3)cc4=O)ccc21 (racemic)	267 to 269
O=C(NC1CC2C=CC1C2)n1cc(F)c(=O)[nH]c1=O (stereo unspecified)	180
Cc1cc(SCc2sc(-c3ccc(C(F)(F)F)cc3)nc2C)c2c(c1OCC(=O)O)CCC2	184
COc1cc(CC(=O)NCCOCc2ccc(C)c(C)c2)ccc1OCCN	60 to 62
CCCCc1ccc(C(=O)NCCC(C)(C)C)cc1	70 to 71
CCOC(=O)C(C#N)=NOC(=O)OCC(Cl)(Cl)Cl	51 to 53
CC1(C)CCC(C)(C)c2cc(Oc3ccc(C=C(O)C(=O)O)cc3)ccc21	207 to 210
CCOC(=O)C(=O)c1cn(Cc2ccc(C(C)(C)C)cc2)c2cc(-c3ccc(OC(F)(F)F)cc3)ccc12	146 to 147
CCOC(=O)/C=C/c1sc(SC)c2c1CCCC2=O	104 to 105
Cc1cn(C(C)C(=O)N(C)C)nc1-c1ccc(Cl)c(Cl)c1 (stereo unspecified)	109 to 110
CN(C)CCNC(=O)N1CCN(c2ccccc2)CC1	88 to 90
COc1c(C(C)(C)C)cc(SC)cc1C(C)(C)C	50 to 52
O=C(N[C@@H](Cc1c[nH]cn1)C(=O)OCCc1cccs1)C(Cc1cccc2ccccc12)Cc1cccc2ccccc12	203 to 206

SMILES	melting point [°C]
O=C1N(Cc2ccccn2)c2cccnc2C12COc1cc3c(cc12)OCCO3 (stereo unspecified)	146 to 147
COC(=O)N1CCc2ccccc2CC1	53 to 54
C[C@H](Nc1nc(N=[N+]=[N-])nc(Cl)c1-c1c(F)cc(F)cc1F)C(F)(F)F	152 to 154
COc1ccc(N2CC(CSCCCSc3ccnc(CNc4nc(C)nc(C)c4Cl)c3C)OC2=O)cc1 (stereo unspecified)	161 to 164
CCc1cc2c(Cl)ccc(-n3c(=O)cc(C(F)(F)F)n(C)c3=O)c2o1	159 to 160
Cc1onc(C(=O)c2c(F)cccc2F)c1NC(=O)CBr	76 to 80
O=C(O)c1cn(C2CC2)c2cc(N3CCC(c4ccncc4)C3)c(F)cc2c1=O (stereo unspecified)	260 to 261
CC(C)Oc1ccc2c(n1)C(C(=O)c1cccs1)C(=O)N2C(N)=O (stereo unspecified)	194 to 196
C[C@@H](NC(=O)c1csc(-c2ccc(Cl)cc2)n1)[C@](O)(Cn1cncn1)c1ccc(F)cc1F	201 to 204
O=C(CCl)c1ccc(Cl)c(S(=O)(=O)NC2CCCCC2)c1	117
COc1ccc(C(=O)CC(C)(C)C(=O)O)c2c1OC(C)(C)C2	159 to 160
O=C(CNc1ccccc1Cl)Nc1c(Cl)ccc2nc(N3CC[C@@H](O)C3)ccc12	215 to 219
CNS(=O)(=O)c1cc2c(c(C(=O)OC)c1)OCCO2	159 to 160
CCCCCC(CC(=O)O)c1cc(C=O)c(OC)cc1OC (stereo unspecified)	110 to 112
COC(=O)[C@H](Cc1cccc2ccccc12)NC(=O)[C@H](CC(=O)OC(C)(C)C)NC(=O)c1cccc(NC(=O)OCc2ccccc2)c1	95 to 98
Clc1cnc(Oc2cccc(C=C(Br)Br)c2)nc1	68
Cc1nnc2n1-c1sc(C(C)OC(=O)C=Cc3ccccc3)cc1C(c1ccccc1Cl)=NC2 (stereo unspecified)	122 to 125
Cc1ccc(-c2nc(Cl)cc(N3CCN(CCO)CC3)n2)cc1	104
CN(C)c1ccc([N+](=O)[O-])cc1Cl	71 to 73
Cc1cc(Nc2ccnc(Nc3ccc(C(=O)N(C)C4CCCN(CCCC(F)(F)F)C4)cc3)n2)ccc1F (stereo unspecified)	100 to 110
Cc1c(Br)c2c(c3c1C(c1ccc(C(C)C)cc1)CO3)CCCC2 (stereo unspecified)	108 to 109
CC(=Cc1ccc(N(C)C)cc1Br)[N+](=O)[O-]	102 to 103

The remaining lines, values ahead:

melting point [°C]	SMILES
123 to 125	O=C1NOCc2ccccc21
220 to 222	Nc1nc(Cc2ccc(OCc3ccccc3)cc2)nc2nc(-c3ccco3)nn12
193 to 194	Nc1nc(Nc2ccccc2)c2ncn(C3CC(F)C(CO)O3)c2n1 (stereo unspecified)
177 to 178	COc1cc2c(cc1O)CCN(Cc1cccc(O)c1)C2
199 to 201	Cn1nc2c(-c3ccc(Cl)cc3Cl)cccc2c1-c1nnco1
162	CC(C)n1nc(-c2sc(C(=O)N3CCOCC3)nc2-c2ccccc2)ccc1=O
117 to 119	Clc1ccc2c(c1)Oc1ccccc1C=C2CBr
228 to 230	COc1cc(OCCOCc2ccccc2)cc2nc(-c3ccncc3)[nH]c(=O)c12
158 to 160	Cc1cc(-c2cn(-c3cccc(OCCn4ccnc4)c3)c3ncnc(N)c23)ccc1OCc1ccccc1
198 to 200	Cc1cccc(-c2ccc(C(=O)O)cc2)c1
170 to 171	CCOC(=O)C1NCc2[nH]c3cccc(OCc4ccccc4)c3c2C1COC (stereo unspecified)
171 to 173	CCCc1c([C@@H]2C[C@H]2c2ccccc2)oc2ccc(C(=O)OC)cc2c1=O (relative stereo)
56 to 58	BrCc1ccccc1Oc1ccc(Br)cc1
95 to 98	CC1(Cc2cccc(N)c2)Cc2ccccc2C1=O (stereo unspecified)
112 to 115	CCc1cccc(CC)c1N(Cc1c[nH]nn1)C(=O)c1ccccc1
62	O=C1CCc2c(Br)cccc2C1
144 to 146	COc1ccnc(C(=O)N[C@H]2COC[C@H](OCc3ccccc3)[C@@H](OCc3ccccc3)[C@H](C)OC2=O)c1O

melting point [°C]	SMILES
132 to 136	O=C1c2ccccc2-c2ncccc21
164 to 165	Cc1nc2c(OC3CCc4ccccc43)nccc2n1C (stereo unspecified)
62 to 65	COC(=O)c1cc(OC)c(OCc2ccccc2)c(OC)c1
59 to 61	Nc1ccccc1CCc1ccccn1
114 to 116	N=C(NO)c1cccc(COC(=O)c2cc3ccccc3n2Cc2cccc(C(=N)NO)c2)c1
268 to 270	COc1ccc2c(c1)C(=O)N(c1ccc3c(c1)n(C)c(=O)n3C)C2
195 to 197	CC(Oc1cccc(C=Cc2ccc3ccc(Cl)cc3n2)c1)C(N)=O (single isomer, unassigned; (-))
122	Clc1cc2oc3ccccc3c2nn1
109	Cc1ccc(N2C(=O)c3ccccc3C2=O)c(Cl)c1Cl
142 to 144	Nc1ccccc1-c1nc2cccnc2o1
> 250	S=c1[nH]nc(C=Cc2ccc3ccccc3c2)o1
129 to 130	COC(=O)C(=O)c1ccc(S(=O)CCOc2ccc3ccccc3c2)cc1 (stereo unspecified)
174 to 176	COc1ccc(/C=N/Nc2ccccc2C(=O)O)cc1OC1CCCC1
179 to 180	CC1(c2ccccc2)OC(=O)Nc2ccc(-c3cccc(Cl)c3)cc21 (stereo unspecified)
139 to 141	CCc1csc(-n2cc(C)cc2-c2ccc(S(N)(=O)=O)cc2)c1
118	COP(=O)(OC)C(O)=Cc1ccc2c(c1)C(=O)Cc1ccccc1O2
